Counter-ions that a name gives are not always drawn.

By bioavailability is commonly meant the share of a dose that reaches the circulation, judged against a reference dose that is usually intravenous.

The nature of data set [1]: DVS isotherm, spray-dried formulation versus crystalline compound I-1. The class given is physicochemical. To be noted: DVS at 25° C.; crystalline compound I-1 compared with the spray-dried dispersion. Here is the method: FIG. 1 is a dynamic vapor sorption (DVS) plot of percent change in mass versus target relative humidity (RH), illustrating the change in mass of one embodiment of the disclosed spray-dried formulation at 25° C. under various relative humidity conditions. The plot provides two isotherms: 1 is the sorption plot, illustrating the change in mass with increasing relative humidity steps; and 2 is the desorption plot, illustrating the change in mass with decreasing relative humidity steps.
FIG. 6 is a DVS plot of percent change in mass versus target relative humidity, illustrating the change in mass of one embodiment of a crystalline sample of compound I-1 at 25° C. under various relative humidity conditions. The plot provides two isotherms: 1 is the sorption plot, illustrating the change in mass with increasing relative humidity steps; and 2 is the desorption plot, illustrating the change in mass with decreasing relative humidity steps.
FIGS. 1-10 provide structural and stability data concerning the spray-dried formulation (FIGS. 1-5) and a crystalline sample of compound I-1 (FIGS. 6-10). FIGS. 1 and 6 provide DVS isotherm plots for the spray-dried formulation and crystalline compound, respectively.

Data set [2] can be described thus: Modulated DSC glass transition temperature. The class given is physicochemical. Particulars: mDSC, reversing heat flow versus temperature. As to the method: FIG. 5 is a modulated DSC (mDSC) plot of reversing heat flow versus temperature, illustrating the heat flow for one embodiment of the spray-dried formulation and showing that the glass transition temperature (Tg) for that embodiment is 108.3° C.
FIG. 10 is an mDSC plot of reversing heat flow versus temperature, illustrating the heat flow for a […] sample of compound I-1, and showing that the glass transition temperature (Tg) for the […] sample is 106.1° C.

Data set [3] can be described thus: Pharmacokinetics in male cynomolgus monkeys (co-crystal capsules, spray-dried dispersion). Format: in vivo. Here is the method: Two groups of male cynomolgus monkeys (n=3/group) were administered test articles in a 3-way crossover design as indicated in Table 2. The washout period between doses was 3-4 days. Test article capsules were prepared such that each capsule contained an equivalent of 25 mg of free base compound I-1. The organic stock solution of compound I-1 was prepared at a concentration of 5 mg/ml using TPGS/PEG400/PG, and was diluted with apple juice within 1 hour of dosing (PO) at 1 part stock solution to 3 parts apple juice.
FIGS. 11-14 provide graphs of the plasma concentrations obtained from administering the co-crystal formulations of compound I-1 to monkeys. And Table 3 provides pharmacokinetic (PK) data for the co-crystal formulations, including the average area under the curve (AUC) and percent bioavailability.
FIG. 19 provides PK data for one embodiment of the disclosed spray-dried formulation, and the organic/juice formulation.

A short description of data set [4]: Physical and chemical stability of salts of I-18, 1 week (XRPD, HPLC purity). The class given is physicochemical. Particulars: for Area (%) of HPLC peak RRT 1.00: main peak; for Area (%) of HPLC peak RRT 1.17: peak = parent compound formed by hydrolysis; for Form change: XRPD; for Initial purity (area %): HPLC, before storage. Here is the method:
The physical and chemical stability of the K salt, Arginine salt, Choline salt and Tris salt were evaluated under conditions of 25° C./60% RH and 40° C./75% RH for 1 week. Each sample was added into 3 mL glass vials, sealed by parafilm with several holes, and kept under tested condition. After one week, samples was taken for XRPD and HPLC purity test.

The mark [5] stands for this setting: 25° C./60% RH, 1 week, listed as potassium salt.
The mark [6] stands for this setting: 40° C./75% RH, 1 week, listed as potassium salt.
Setting [7] is: Initial, listed as potassium salt.
[8] abbreviates: 25° C./60% RH, 1 week, listed as choline salt.
The mark [9] stands for this setting: 40° C./75% RH, 1 week, listed as choline salt.
The mark [10] stands for this setting: Initial, listed as choline salt.

On to `CCO[C@H]1CC[C@H](n2cc(NC(=O)c3csc(-c4cn[nH]c4)n3)c(-c3nc(F)ccc3F)n2)CC1` [I-1, N-(3-(3,6-difluoropyridin-2-yl)-1-((1r,4r)-4-ethoxycyclohexyl)-1H-pyrazol-4-yl)-2-(1H-pyrazol-4-yl)thiazole-4-carboxamide], for which the “change in mass when exposed to higher relative humidity” value in data set [1] is recorded as “substantially smaller change in mass”. For the same compound, the “glass transition temperature (Tg)” value in data set [2] came out at 106.1 °C.

Turning to `CCO[C@H]1CC[C@H](n2cc(NC(=O)c3csc(-c4cn[nH]c4)n3)c(-c3nc(F)ccc3F)n2)CC1.O=C(O)C(O)C(O)C(=O)O` [I-11, N-(3-(3,6-difluoropyridin-2-yl)-1-((1r,4r)-4-ethoxycyclohexyl)-1H-pyrazol-4-yl)-2-(1H-pyrazol-4-yl)thiazole-4-carboxamide hemi-tartrate salt], the “% F (percent bioavailability)” value in data set [3] (n=3, capsule with equivalent of 25 mg free base compound I-1) was determined as 24.7%.

With `CCO[C@H]1CC[C@H](n2cc(NC(=O)c3csc(-c4cn[nH]c4)n3)c(-c3nc(F)ccc3F)n2)CC1` [I-104, N-(3-(3,6-difluoropyridin-2-yl)-1-((1r,4r)-4-ethoxycyclohexyl)-1H-pyrazol-4-yl)-2-(1H-pyrazol-4-yl)thiazole-4-carboxamide phosphate], the bioavailability in data set [3] (cynomolgus monkey, plasma, po, n=3, capsule with equivalent of 25 mg free base compound I-1, read-out: % F (percent bioavailability)) is 7.9%. Also, the AUC(0-t) in data set [3] (cynomolgus monkey, po, n=3, capsule with equivalent of 25 mg free base compound I-1, plasma, normalized to 5 mg/kg of compound I-1, read-out: Average AUC0-24 h ± SD (5 mg/kg basis)) was 921 ± 446 ng·h/mL.

Take `CCO[C@H]1CC[C@H](n2cc(NC(=O)c3csc(-c4cn[nH]c4)n3)c(-c3nc(F)ccc3F)n2)CC1` [I-105, N-(3-(3,6-difluoropyridin-2-yl)-1-((1r,4r)-4-ethoxycyclohexyl)-1H-pyrazol-4-yl)-2-(1H-pyrazol-4-yl)thiazole-4-carboxamide gentisate]: in data set [3] (n=3, capsule with equivalent of 25 mg free base compound I-1, listed as Gentisate cocystal), the “% F (percent bioavailability)” value was 9.8%.

Consider `CCO[C@H]1CC[C@H](n2cc(NC(=O)c3csc(-c4cn[nH]c4)n3)c(-c3nc(F)ccc3F)n2)CC1` [I-106, N-(3-(3,6-difluoropyridin-2-yl)-1-((1r,4r)-4-ethoxycyclohexyl)-1H-pyrazol-4-yl)-2-(1H-pyrazol-4-yl)thiazole-4-carboxamide succinate], for which the “% F (percent bioavailability)” value in data set [3] (n=3, capsule with equivalent of 25 mg free base compound I-1, listed as Succinate co-crystal) came out at 12.7%.

For `CCO[C@H]1CC[C@H](n2cc(NC(=O)c3csc(-c4cnn(C(C)OP(=O)(O)O)c4)n3)c(-c3nc(F)ccc3F)n2)CC1` (stereo partly shown) [I-108, potassium 1-(4-(4-((3-(3,6-difluoropyridin-2-yl)-1-((1r,4r)-4-ethoxycyclohexyl)-1H-pyrazol-4-yl)carbamoyl)thiazol-2-yl)-1H-pyrazol-1-yl)ethyl hydrogen phosphate], in data set [4] (25° C./60% RH, 1 week), the “Area (%) of HPLC peak RRT 1.14” value is given as below 0.04%, the “Area (%) of HPLC peak RRT 1.40” value is given as 0.25%, the “Area (%) of HPLC peak RRT 1.44” value is recorded as 0.30% and the “Area (%) of HPLC peak RRT 1.70” value worked out at 0.27%. In data set [4] (25° C./60% RH, 1 week), the “Area (%) of HPLC peak RRT 1.72” value is listed as 0.78% and the “Area (%) of HPLC peak RRT 1.81” value is on record as below 0.04%. In addition, the HPLC purity change result in data set [4] (25° C./60% RH, 1 week, listed as K salt) is “slight purity decrease”. Further, in data set [4] (setting [5]), the “Area (%) of HPLC peak RRT 1.00” value is recorded as 96.26% and the “Area (%) of HPLC peak RRT 1.17” value was determined as 2.14%. The Form change entry in data set [4] (25° C./60% RH/1 week, listed as K salt) was “no form change and No”. In data set [4] (40° C./75% RH, 1 week), the “Area (%) of HPLC peak RRT 1.14” value turned out to be 0.05%, the “Area (%) of HPLC peak RRT 1.40” value turned out to be 0.39%, the “Area (%) of HPLC peak RRT 1.44” value is given as 0.24% and the “Area (%) of HPLC peak RRT 1.70” value is given as 0.24%. Further, in data set [4] (40° C./75% RH, 1 week), the “Area (%) of HPLC peak RRT 1.72” value is recorded as 0.83% and the “Area (%) of HPLC peak RRT 1.81” value amounted to 0.04%. For the same compound, the HPLC purity change entry in data set [4] (40° C./75% RH, 1 week, listed as K salt) was “slight purity decrease”. Besides, in data set [4] (setting [6]), the “Area (%) of HPLC peak RRT 1.00” value was 96.40% and the “Area (%) of HPLC peak RRT 1.17” value came out at 1.80%. Besides, the Form change entry in data set [4] (40° C./75% RH/1 week, listed as K salt) was “a form change was observed and Yes”. Moreover, the “Initial purity (area %)” value in data set [4] (listed as K salt) stood at 97.27 area %. In addition, in data set [4] (Initial), the “Area (%) of HPLC peak RRT 1.14” value was below 0.04%, the “Area (%) of HPLC peak RRT 1.40” value is listed as 0.23%, the “Area (%) of HPLC peak RRT 1.44” value is 0.21% and the “Area (%) of HPLC peak RRT 1.70” value is given as 0.18%. For the same compound, in data set [4] (Initial), the “Area (%) of HPLC peak RRT 1.72” value is recorded as 0.77% and the “Area (%) of HPLC peak RRT 1.81” value is below 0.04%. Further, in data set [4] (setting [7]), the “Area (%) of HPLC peak RRT 1.00” value came to 97.27% and the “Area (%) of HPLC peak RRT 1.17” value is listed as 1.33%.

For the compound `CCO[C@H]1CC[C@H](n2cc(NC(=O)c3csc(-c4cnn(C(C)OP(=O)(O)O)c4)n3)c(-c3nc(F)ccc3F)n2)CC1` (stereo partly shown) [I-111, 1-(4-(4-((3-(3,6-difluoropyridin-2-yl)-1-((1r,4r)-4-ethoxycyclohexyl)-1H-pyrazol-4-yl)carbamoyl)thiazol-2-yl)-1H-pyrazol-1-yl)ethyl dihydrogen phosphate choline salt], in data set [4] (setting [8]), the “Area (%) of HPLC peak RRT 0.77” value is given as 0.04%, the “Area (%) of HPLC peak RRT 1.35” value came out at 0.10%, the “Area (%) of HPLC peak RRT 1.45” value is 0.07% and the “Area (%) of HPLC peak RRT 1.71” value turned out to be 0.05%. Also, in data set [4] (setting [8]), the “Area (%) of HPLC peak RRT 1.73” value worked out at 0.46%, the HPLC purity change entry is on record as “no HPLC purity decrease”, the “Area (%) of HPLC peak RRT 1.00” value was found to be 98.66% and the “Area (%) of HPLC peak RRT 1.17” value was determined as 0.58%. The “Purity/Initial purity (%)” value in data set [4] (25° C./60% RH/1 week) stood at 100.0%. Also, the Form change result in data set [4] (25° C./60% RH/1 week, listed as Choline salt) is “no form change and No”. Besides, in data set [4] (setting [9]), the “Area (%) of HPLC peak RRT 0.77” value amounted to 0.04%, the “Area (%) of HPLC peak RRT 1.35” value came out at 0.14%, the “Area (%) of HPLC peak RRT 1.45” value was 0.11% and the “Area (%) of HPLC peak RRT 1.71” value was 0.08%. In data set [4] (setting [9]), the “Area (%) of HPLC peak RRT 1.73” value is reported as 0.46%, the HPLC purity change result is listed as “a purity decrease was observed”, the “Area (%) of HPLC peak RRT 1.00” value worked out at 97.81% and the “Area (%) of HPLC peak RRT 1.17” value turned out to be 1.31%. Besides, the Form change entry in data set [4] (40° C./75% RH/1 week, listed as Choline salt) was “no form change and No”. Moreover, in data set [4] (listed as Choline salt), the “Initial purity (area %)” value is given as 98.70 area %. For the same compound, the “Area (%) of HPLC peak RRT 1.35” value in data set [4] (Initial) is below 0.03%. For the same compound, in data set [4] (setting [10]), the “Area (%) of HPLC peak RRT 0.77” value worked out at 0.03%, the “Area (%) of HPLC peak RRT 1.13” value is given as 0.06%, the “Area (%) of HPLC peak RRT 1.45” value was determined as 0.06% and the “Area (%) of HPLC peak RRT 1.71” value amounted to 0.06%. Also, in data set [4] (setting [10]), the “Area (%) of HPLC peak RRT 1.73” value came to 0.33%, the “Area (%) of HPLC peak RRT 1.00” value worked out at 98.70% and the “Area (%) of HPLC peak RRT 1.17” value was 0.75%.
